Where two headings read alike, the source gives them in different places.
Columns and labels:
[1] = tested on: A549/ATCC; experiment: NCI-60 SRB growth inhibition, one-dose and five-dose; assay type: cell-based; details: Homo sapiens
[2] = tested on: MDA-MB-468; experiment: as above; assay type: cell-based; details: Homo sapiens
[3] = tested on: MALME-3M; experiment: as above; assay type: cell-based; details: Homo sapiens
[4] = tested on: CCRF-CEM; experiment: as above; assay type: cell-based; details: Homo sapiens
[5] = tested on: SF-539; experiment: as above; assay type: cell-based; details: Homo sapiens
[6] = tested on: DU-145; experiment: as above; assay type: cell-based; details: Homo sapiens
[7] = tested on: HCT-15; experiment: as above; assay type: cell-based; details: Homo sapiens
[8] = tested on: LOX IMVI; experiment: as above; assay type: cell-based; details: Homo sapiens
[9] = tested on: K-562; experiment: as above; assay type: cell-based; details: Homo sapiens
[10] = tested on: SNB-19; experiment: as above; assay type: cell-based; details: Homo sapiens
[11] = tested on: IGROV1; experiment: as above; assay type: cell-based; details: Homo sapiens
[12] = tested on: HS 578 T; experiment: as above; assay type: cell-based; details: Homo sapiens
[13] = tested on: SK-MEL-2; experiment: as above; assay type: cell-based; details: Homo sapiens, SK-MEL-2, read-out: percent growth inhibition
[14] = tested on: SK-MEL-5; experiment: as above; assay type: cell-based; details: Homo sapiens
[15] = tested on: SK-MEL-28; experiment: as above; assay type: cell-based; details: Homo sapiens
[16] = tested on: HL-60(TB); experiment: cells; assay type: cell-based; details: Homo sapiens
[17] = tested on: NCI 60-cell line panel (full panel); experiment: NCI-60 SRB growth inhibition, full panel mean / MG-MID; assay type: cell-based, human; details: for GI50: Homo sapiens, 60 cell
[18] = tested on: MDA-MB-435; experiment: NCI-60 SRB growth inhibition, one-dose and five-dose; assay type: cell-based; details: Homo sapiens
[19] = tested on: RXF 393; experiment: as above; assay type: cell-based; details: Homo sapiens
[20] = tested on: OVCAR-4; experiment: as above; assay type: cell-based; details: Homo sapiens
[21] = tested on: T-47D; experiment: as above; assay type: cell-based; details: Homo sapiens, T47D
[22] = tested on: SF-268; experiment: as above; assay type: cell-based; details: Homo sapiens
[23] = tested on: HCC-2998; experiment: as above; assay type: cell-based; details: Homo sapiens
[24] = tested on: MOLT-4; experiment: as above; assay type: cell-based; details: Homo sapiens
[25] = tested on: U251; experiment: as above; assay type: cell-based; details: Homo sapiens
[26] = tested on: A498; experiment: as above; assay type: cell-based; details: Homo sapiens
[27] = tested on: OVCAR-5; experiment: as above; assay type: cell-based; details: Homo sapiens
[28] = tested on: EKVX; experiment: as above; assay type: cell-based; details: Homo sapiens
[29] = tested on: NCI-H226; experiment: as above; assay type: cell-based; details: Homo sapiens
[30] = tested on: OVCAR-3; experiment: as above; assay type: cell-based; details: Homo sapiens
[31] = tested on: CAKI-1; experiment: as above; assay type: cell-based; details: Homo sapiens
[32] = tested on: SR; experiment: as above; assay type: cell-based; details: Homo sapiens
[33] = tested on: HOP-92; experiment: as above; assay type: cell-based; details: Homo sapiens
[34] = tested on: PC-3; experiment: as above; assay type: cell-based; details: Homo sapiens
[35] = tested on: OVCAR-8; experiment: as above; assay type: cell-based; details: Homo sapiens, OVCAR-8, read-out: percent growth inhibition
[36] = tested on: MCF7; experiment: as above; assay type: cell-based; details: Homo sapiens
[37] = tested on: BT-549; experiment: as above; assay type: cell-based; details: Homo sapiens
[38] = tested on: KM12; experiment: as above; assay type: cell-based; details: Homo sapiens
[39] = tested on: HOP-62; experiment: as above; assay type: cell-based; details: Homo sapiens
[40] = tested on: COLO 205; experiment: as above; assay type: cell-based; details: Homo sapiens
[41] = tested on: NCI-H522; experiment: as above; assay type: cell-based; details: Homo sapiens
[42] = tested on: HCT-116; experiment: as above; assay type: cell-based; details: Homo sapiens
[43] = read-out: percent growth inhibition

Compound: O=C(/C=C/c1cccnc1)c1cccc(NCc2csc3ccccc23)c1 [Compound 5d, (E)-1–(3-((benzo[b]thiophen-3-ylmethyl)amino)phenyl)-3-(pyridin-3-yl)prop-2-en-1-one]
- GI50 ([1]; A549): 11.5 µM
- inhibition at 10 µM ([1]; A549, read-out: percent growth inhibition): 53.1%
- GI50 ([2]; MDA-MB-468): 1.82 µM
- inhibition at 10 µM ([2]; MDA-MB-468, read-out: percent growth inhibition): 162%
- GI50 [3]: 5.92 µM
- inhibition at 10 µM [3, 43]: 104%
- GI50 [4]: 3.01 µM
- inhibition at 10 µM [4, 43]: 134%
- GI50 ([5]; SF-539): 6.15 µM
- inhibition at 10 µM ([5]; SF-539, read-out: percent growth inhibition): 171%
- GI50 ([6]; DU-145): 7.35 µM
- inhibition at 10 µM ([6]; DU-145, read-out: percent growth inhibition): 71.9%
- GI50 ([7]; HCT-15): 1.92 µM
- inhibition at 10 µM ([7]; HCT-15, read-out: percent growth inhibition): 141%
- GI50 [8]: 1.69 µM
- inhibition at 10 µM [8, 43]: 198%
- GI50 ([9]; K562): 3.14 µM
- inhibition at 10 µM ([9]; K562, read-out: percent growth inhibition): 111%
- GI50 ([10]; SNB-19): 3.86 µM
- inhibition at 10 µM ([10]; SNB-19, read-out: percent growth inhibition): 134%
- GI50 ([11]; IGROV-1): 3.32 µM
- inhibition at 10 µM ([11]; IGROV-1, read-out: percent growth inhibition): 108%
- GI50 [12]: 4.49 µM
- inhibition at 10 µM [12, 43]: 76.9%
- inhibition at 10 µM [13]: 74%
- GI50 ([14]; SK-MEL-5): 2.89 µM
- inhibition at 10 µM ([14]; SK-MEL-5, read-out: percent growth inhibition): 163%
- GI50 ([15]; SK-MEL-28): 3.55 µM
- inhibition at 10 µM ([15]; SK-MEL-28, read-out: percent growth inhibition): 145%
- GI50 ([16]; HL-60): 2.73 µM
- inhibition at 10 µM ([16]; HL-60, read-out: percent growth inhibition): 135%
- GI50 ([17]; read-out: Full panel GI50 mean): 4.74 µM
- GI50 ([17]; read-out: Full panel MG-MID GI50): 4.74 µM
- Full panel Mean GI % ([17]; mean over NCI-60 panel, single dose 10 µM): 120.02%
- GI50 ([18]; MDA-MB-435): 2.55 µM
- inhibition at 10 µM ([18]; MDA-MB-435, read-out: percent growth inhibition): 121%
- GI50 ([19]; RXF 393): 4.67 µM
- inhibition at 10 µM ([19]; RXF 393, read-out: percent growth inhibition): 177%
- GI50 ([20]; OVCAR-4): 4.27 µM
- inhibition at 10 µM ([20]; OVCAR-4, read-out: percent growth inhibition): 82.5%
- GI50 [21]: 2.83 µM
- inhibition at 10 µM [21, 43]: 91.2%
- GI50 ([22]; SF-268): 12 µM
- inhibition at 10 µM ([22]; SF-268, read-out: percent growth inhibition): 69.7%
- GI50 ([23]; HCC 2998): 3.66 µM
- inhibition at 10 µM ([23]; HCC 2998, read-out: percent growth inhibition): 188%
- GI50 ([24]; MOLT-4): 3.16 µM
- inhibition at 10 µM ([24]; MOLT-4, read-out: percent growth inhibition): 114%
- GI50 ([25]; U-251): 1.92 µM
- inhibition at 10 µM ([25]; U-251, read-out: percent growth inhibition): 198%
- GI50 ([26]; A498): 12.1 µM
- inhibition at 10 µM ([26]; A498, read-out: percent growth inhibition): 36.5%
- GI50 ([27]; OVCAR-5): 7.07 µM
- inhibition at 10 µM ([27]; OVCAR-5, read-out: percent growth inhibition): 91.5%
- GI50 [28]: 3.98 µM
- inhibition at 10 µM [28, 43]: 106%
- GI50 ([29]; NCI-H226): 3.43 µM
- inhibition at 10 µM ([29]; NCI-H226, read-out: percent growth inhibition): 111%
- GI50 ([30]; OVCAR-3): 3.19 µM
- inhibition at 10 µM ([30]; OVCAR-3, read-out: percent growth inhibition): 157%
- GI50 ([31]; CAKI-1): 9.3 µM
- inhibition at 10 µM ([31]; CAKI-1, read-out: percent growth inhibition): 98.3%
- GI50 [32]: 2.51 µM
- GI50 ([33]; HOP-92): 10.2 µM
- inhibition at 10 µM ([33]; HOP-92, read-out: percent growth inhibition): 39.4%
- GI50 ([34]; PC-3): 3.76 µM
- inhibition at 10 µM ([34]; PC-3, read-out: percent growth inhibition): 99.2%
- inhibition at 10 µM [35]: 119%
- GI50 ([36]; MCF7): 1.58 µM
- inhibition at 10 µM ([36]; MCF7, read-out: percent growth inhibition): 176%
- GI50 ([37]; BT-549): 2.75 µM
- inhibition at 10 µM ([37]; BT-549, read-out: percent growth inhibition): 174%
- GI50 ([38]; KM12): 3.58 µM
- inhibition at 10 µM ([38]; KM12, read-out: percent growth inhibition): 158%
- GI50 ([39]; HOP-62): 10.2 µM
- inhibition at 10 µM ([39]; HOP-62, read-out: percent growth inhibition): 65.2%
- GI50 ([40]; COLO 205): 11.6 µM
- inhibition at 10 µM ([40]; COLO 205, read-out: percent growth inhibition): 86.5%
- GI50 ([41]; NCI-H522): 1.78 µM
- inhibition at 10 µM ([41]; NCI-H522, read-out: percent growth inhibition): 170%
- GI50 ([42]; HCT-116, HCT-116, five-dose screening): 1.82 µM
- inhibition at 10 µM ([42]; HCT-116, read-out: percent growth inhibition): 195%

Source: article PMC11003488 (Journal of Enzyme Inhibition and Medicinal Chemistry, 2023)
